Source: PubChem BioAssay AID248 (DTP/NCI, 2004)
Where “and” joins values, the source holds several entries; their conditions need not be identical. Identical values can stand only once. Inconclusive results and toxic doses are left out. Cut-off read from the data, not from the text of the source: active = T/C of 150% or more; inactive = T/C below 125%.

Test system: L1210 leukemia ip in BDF1 mice, survival T/C
Assay: NCI In Vivo Anticancer Drug Screen. Data for tumor model L1210 Leukemia (intraperitoneal) in B6D2F1 (BDF1) mice
Settings: endpoint: mean survival time, higher = longer survival
Outline: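 Tumor cells were implanted, animals were treated, and survival was followed. The result divides the treated measurement by the vehicle-control measurement.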

[1] = dose: 100.0 mg/kg/injection, schedule: Q04DX002 (ip), vehicle: saline
[2] = dose: 100.0 mg/kg/injection, schedule: Q04DX003 (ip), vehicle: Klucel (hydroxypropylcellulose) (HPC)
[3] = dose: 200.0 mg/kg/injection, schedule: Q04DX003 (ip), vehicle: Klucel (hydroxypropylcellulose) (HPC)
[4] = dose: 400.0 mg/kg/injection, schedule: Q04DX003 (ip), vehicle: Klucel (hydroxypropylcellulose) (HPC)
[5] = dose: 100.0 mg/kg/injection, schedule: Q04DX003 (ip), vehicle: saline with Tween-80
[6] = dose: 100.0 mg/kg/injection, schedule: Q04DX003 (ip), vehicle: saline
[7] = dose: 200.0 mg/kg/injection, schedule: Q04DX003 (ip), vehicle: saline with Tween-80
[8] = dose: 200.0 mg/kg/injection, schedule: Q04DX003 (ip), vehicle: saline
[9] = dose: 400.0 mg/kg/injection, schedule: Q04DX003 (ip), vehicle: saline with Tween-80
[10] = dose: 400.0 mg/kg/injection, schedule: Q04DX003 (ip), vehicle: saline
[11] = dose: 100.0 mg/kg/injection, schedule: Q01DX009 (ip), vehicle: Klucel (hydroxypropylcellulose) (HPC)
[12] = dose: 200.0 mg/kg/injection, schedule: Q01DX009 (ip), vehicle: Klucel (hydroxypropylcellulose) (HPC)
[13] = dose: 400.0 mg/kg/injection, schedule: Q01DX009 (ip), vehicle: Klucel (hydroxypropylcellulose) (HPC)
[14] = dose: 100.0 mg/kg/injection, schedule: Q01DX001 (ip), vehicle: carboxymethylcellulose (CMC)
[15] = dose: 200.0 mg/kg/injection, schedule: Q01DX001 (ip), vehicle: carboxymethylcellulose (CMC)
[16] = dose: 400.0 mg/kg/injection, schedule: Q01DX001 (ip), vehicle: carboxymethylcellulose (CMC)

Measured: T/C

CCCC(=O)N1CCCC(C)C1 (stereo not drawn)
inactive: [1] 111 % of control | dose: 200.0 mg/kg/injection, schedule: Q04DX002 (ip), vehicle: saline 107 % of control | dose: 400.0 mg/kg/injection, schedule: Q04DX002 (ip), vehicle: saline 104 % of control

CC1(C)Cc2cccc(C(O)(CCN3CCCCC3)c3ccccc3)c2O1 (stereo not drawn)
inactive: dose: 20.0 mg/kg/injection, schedule: Q01DX001 (ip), vehicle: Klucel (hydroxypropylcellulose) (HPC) 96 % of control | dose: 40.0 mg/kg/injection, schedule: Q01DX001 (ip), vehicle: Klucel (hydroxypropylcellulose) (HPC) 98 % of control | dose: 80.0 mg/kg/injection, schedule: Q01DX001 (ip), vehicle: Klucel (hydroxypropylcellulose) (HPC) 92 % of control | dose: 100.0 mg/kg/injection, schedule: Q01DX001 (ip), vehicle: Klucel (hydroxypropylcellulose) (HPC) 91 % of control

COc1ccc(/C=C(/C)C(=O)c2ccccc2)cc1
inactive: [2] 98 % of control | [3] 88 % of control | [4] 103 % of control

O=C(NNc1ccccc1OCc1ccccc1)C(F)(F)F
inactive: dose: 100.0 mg/kg/injection, schedule: Q01DX001 (ip), vehicle: saline with Tween-80 100 % of control | dose: 200.0 mg/kg/injection, schedule: Q01DX001 (ip), vehicle: saline with Tween-80 103 % of control | dose: 400.0 mg/kg/injection, schedule: Q01DX001 (ip), vehicle: saline with Tween-80 95 % of control

N#CCCSCCC#N
inactive: dose: 7.5 mg/kg/injection, schedule: Q01DX009 (ip), vehicle: saline 101 % of control | [5] 105 % of control | [6] 115 % of control | dose: 150.0 mg/kg/injection, schedule: Q01DX009 (ip), vehicle: saline 93 % of control | [7] 100 % of control | [8] 101 % of control | dose: 300.0 mg/kg/injection, schedule: Q01DX009 (ip), vehicle: saline 98 % of control | [9] 108 % of control | [10] 100 % of control

COC1=C2C[C@@H](C)C[C@@H](OC)[C@@H](O)[C@H](C)/C=C(\C)[C@@H](OC(N)=O)[C@H](OC)/C=C\C=C(/C)C(=O)NC(=CC1=O)C2=O
inactive: dose: 0.13 mg/kg/injection, schedule: Q01DX009 (ip), vehicle: saline with Tween-80 103 % of control | dose: 0.25 mg/kg/injection, schedule: Q01DX009 (ip), vehicle: saline with Tween-80 103 % of control | dose: 0.5 mg/kg/injection, schedule: Q01DX009 (ip), vehicle: saline with Tween-80 98 % of control | dose: 1.0 mg/kg/injection, schedule: Q01DX009 (ip), vehicle: saline with Tween-80 101 % of control | dose: 2.0 mg/kg/injection, schedule: Q01DX009 (ip), vehicle: saline with Tween-80 103 % of control | dose: 4.0 mg/kg/injection, schedule: Q01DX009 (ip), vehicle: saline with Tween-80 108 % of control

c1ccc(C2=C(c3ccccc3)N=c3ccccc3=c3ccccc3=N2)cc1
inactive: [11] 98 % of control | [2] 94 % of control | [12] 94 % of control | [3] 94 % of control | [13] 94 % of control | [4] 102 % of control

O=[N+]([O-])c1ccc(O)c(I)c1
inactive: dose: 100.0 mg/kg/injection, schedule: Q01DX001 (ip), vehicle: saline 97 % of control | [6] 100 % of control | dose: 200.0 mg/kg/injection, schedule: Q01DX001 (ip), vehicle: saline 98 % of control | [8] 105 % of control | dose: 400.0 mg/kg/injection, schedule: Q01DX001 (ip), vehicle: saline 95 % of control | [10] 102 % of control

C1CCC(C2CCCC(C3CCCCC3)C2)CC1 (stereo not drawn)
inactive: [14] 94 % of control | [15] 96 % of control | [16] 94 % of control

CN(C(=O)NCCCl)C1CCCCC1
inactive: dose: 75.0 mg/kg/injection, schedule: Q01DX001 (ip), vehicle: carboxymethylcellulose (CMC) 106 % of control

O=[N+]([O-])c1ccc(/C=N\Nc2ccc([N+](=O)[O-])cn2)cc1
inactive: dose: 50.0 mg/kg/injection, schedule: Q01DX009 (ip), vehicle: saline with Tween-80 91 % of control | dose: 100.0 mg/kg/injection, schedule: Q01DX009 (ip), vehicle: saline sonified 92 % of control | dose: 100.0 mg/kg/injection, schedule: Q01DX009 (ip), vehicle: saline with Tween-80 95 % of control | [2] 94 % of control | dose: 200.0 mg/kg/injection, schedule: Q01DX009 (ip), vehicle: saline sonified 87 % of control | dose: 200.0 mg/kg/injection, schedule: Q01DX009 (ip), vehicle: saline with Tween-80 87 % of control | [3] 93 % of control | dose: 400.0 mg/kg/injection, schedule: Q01DX009 (ip), vehicle: saline sonified 95 % of control | [4] 101 % of control

CC12CCC(O)CC1CCC1C2CCC2(C)C(c3ccc(=O)oc3)C(O)C3OC132 (stereo not drawn)
inactive: dose: 1.87 mg/kg/injection, schedule: Q01DX009 (ip), vehicle: Klucel (hydroxypropylcellulose) (HPC) 105 % of control | dose: 3.5 mg/kg/injection, schedule: Q01DX009 (ip), vehicle: Klucel (hydroxypropylcellulose) (HPC) 96 % of control | dose: 7.0 mg/kg/injection, schedule: Q01DX009 (ip), vehicle: Klucel (hydroxypropylcellulose) (HPC) 91 % of control

C1COCCN1
inactive: dose: 25.6 mg/kg/injection, schedule: Q04DX002 (ip), vehicle: saline with Tween-80 101 % of control | dose: 64.0 mg/kg/injection, schedule: Q04DX002 (ip), vehicle: saline with Tween-80 101 % of control | [5] 98 % of control | dose: 160.0 mg/kg/injection, schedule: Q04DX002 (ip), vehicle: saline with Tween-80 101 % of control | [7] 101 % of control | dose: 400.0 mg/kg/injection, schedule: Q04DX002 (ip), vehicle: saline with Tween-80 101 % of control | [9] 95 % of control

Clc1ccc(-c2cc(=[N+]3CCOCC3)ss2)cc1
inactive: dose: 25.0 mg/kg/injection, schedule: Q01DX009 (ip), vehicle: water 101 % of control | dose: 50.0 mg/kg/injection, schedule: Q01DX009 (ip), vehicle: water 93 % of control | dose: 100.0 mg/kg/injection, schedule: Q01DX009 (ip), vehicle: water 96 % of control | dose: 200.0 mg/kg/injection, schedule: Q01DX009 (ip), vehicle: water 88 % of control

Cc1cccc(C)c1NC(=O)Nc1cccc(O)c1
inactive: [11] 101 % of control | [12] 108 % of control | [13] 103 % of control

CC(=O)c1ccc2c(c1)Cc1cc(Br)ccc1-2
inactive: [14] 97 % of control | [15] 89 % of control | [16] 97 % of control

NC(CCl)=NC1CCCCC1
inactive: dose: 25.0 mg/kg/injection, schedule: Q04DX002 (ip), vehicle: saline 106 % of control | dose: 50.0 mg/kg/injection, schedule: Q04DX002 (ip), vehicle: saline 100 % of control | [1] 110 % of control and 120 % of control

CCN(C(=S)Nc1cccc(OC)c1)c1ccccc1
inactive: [11] 90 % of control | [12] 94 % of control
